Reference: US20110245249A1, “Heterocyclically Substituted Anilinopyrimidines” (Bayer CropScience AG, priority 2008, published 2011)

Experiment: logP by HPLC on reversed-phase columns (EEC Directive 79/831 Annex V.A8)
Type: physicochemical
Conditions: for log p [a]: pH 2.3
Experimental: The logP values were measured in accordance with EEC Directive 79/831 Annex V.A8 by HPLC (High Performance Liquid Chromatography) on reversed-phase columns (C 18) using the methods below:
[a] The determination was carried out in the acidic range at pH 2.3 using the mobile phases 0.1% aqueous phosphoric acid and acetronitrile linear gradient from 10% acetonitrile to 95% acetronitrile. [b] The LC-MS determination in the acid range was carried out at pH 2.7 using the mobile phases 0.1% aqueous formic acid and acetonitrile (contains 0.1% formic acid) linear gradient from 10% acetonitrile to 95% acetonitrile. [c] The LC-MS determination in the neutral range was carried out at pH 7.8 using the mobile phases 0.001 molar aqueous ammonium bicarbonate solution and acetonitrile linear gradient from 10% acetonitrile to 95% acetonitrile.

CC(C)(C)OCC1COC(c2cccc(Nc3ncc(Cl)c(NC4CC4)n3)c2)O1 (centres unmarked) [Example 95]
log p [b] (pH 2.7): 2.76 | log p [c] (pH 7.8): 4.08

CCCOCC1COC(c2cccc(Nc3ncc(Cl)c(NC4CC4)n3)c2)O1 (centres unmarked) [Example 96]
log p [b] (pH 2.7): 2.51 | log p [c] (pH 7.8): 3.79

CC1CCOC(c2cccc(Nc3ncc(Cl)c(NC4CC4)n3)c2)O1 (centres unmarked) [Example 97]
log p [b] (pH 2.7): 2 | log p [c] (pH 7.8): 3.25

CC1OC(c2cccc(Nc3ncc(Cl)c(NC4CC4)n3)c2)OC(C)C1C (centres unmarked) [Example 98]
log p [b] (pH 2.7): 2.77 | log p [c] (pH 7.8): 4.21

Clc1cnc(Nc2cccc(C3OCC(Cl)CO3)c2)nc1NC1CC1 (centres unmarked) [Example 99]
log p [b] (pH 2.7): 2.15 | log p [c] (pH 7.8): 3.33

CC1(C)CCOC(c2cccc(Nc3ncc(Cl)c(NC4CC4)n3)c2)O1 (centres unmarked) [Example 100]
log p [b] (pH 2.7): 2.22 | log p [c] (pH 7.8): 3.57

CC1COC(c2cccc(Nc3ncc(Cl)c(NC4CC4)n3)c2)OC1 (centres unmarked) [Example 101]
log p [b] (pH 2.7): 2.1 | log p [c] (pH 7.8): 3.35

CC1(C)CC(C)(C)OC(c2cccc(Nc3ncc(Cl)c(NC4CC4)n3)c2)O1 [Example 102]
log p [b] (pH 2.7): 2.86 | log p [c] (pH 7.8): 4.32

Clc1cnc(Nc2cccc(C3OCC4(CCC4)CO3)c2)nc1NC1CC1 [Example 103]
log p [b] (pH 2.7): 2.6 | log p [c] (pH 7.8): 3.62

COCC1COC(c2cccc(Nc3ncc(Br)c(NC4CC4)n3)c2)O1 (centres unmarked) [Example 104]
log p [b] (pH 2.7): 1.9 | log p [c] (pH 7.8): 3.02

COCC1COC(c2cccc(Nc3ncc(C(F)(F)F)c(NC4CCC4)n3)c2)O1 (centres unmarked) [Example 106]
log p [b] (pH 2.7): 3.22 | log p [c] (pH 7.8): 3.77

C=CCOCC1COC(c2cccc(Nc3ncc(Br)c(NC4CC4)n3)c2)O1 (centres unmarked) [Example 107]
log p [a]: 2.01 | log p [b] (pH 2.7): 2.43

C=CCOCC1COC(c2cccc(Nc3ncc(C(F)(F)F)c(NC4CC4)n3)c2)O1 (centres unmarked) [Example 108]
log p [b] (pH 2.7): 3.35 | log p [c] (pH 7.8): 3.79

C=CCOCC1COC(c2cccc(Nc3ncc(C(F)(F)F)c(NC4CCC4)n3)c2)O1 (centres unmarked) [Example 109]
log p [b] (pH 2.7): 3.84 | log p [c] (pH 7.8): 4.35

Brc1cnc(Nc2cccc(C3OC4COCC4O3)c2)nc1NC1CC1 (centres unmarked) [Example 110]
log p [c] (pH 7.8): 2.66[c]

FC(F)(F)c1cnc(Nc2cccc(C3OC4COCC4O3)c2)nc1NC1CC1 (centres unmarked) [Example 111]
log p [a]: 1.94 | log p [c] (pH 7.8): 2.87

FC(F)(F)c1cnc(Nc2cccc(C3OC4COCC4O3)c2)nc1NC1CCC1 (centres unmarked) [Example 112]
log p [b] (pH 2.7): 2.79 | log p [c] (pH 7.8): 3.37

CCC1COC(c2cccc(Nc3ncc(C(F)(F)F)c(NC4CCC4)n3)c2)O1 (centres unmarked) [Example 113]
log p [b] (pH 2.7): 4.06 | log p [c] (pH 7.8): 4.56

COCC1COC(c2cccc(Nc3ncc(Cl)c(NC4CCC4)n3)c2)O1 (centres unmarked) [Example 114]
log p [b] (pH 2.7): 2.09 | log p [c] (pH 7.8): 3.42

COCC1COC(c2cccc(Nc3ncc(Br)c(NC4CCC4)n3)c2)O1 (centres unmarked) [Example 115]
log p [b] (pH 2.7): 2.19 | log p [c] (pH 7.8): 3.61

C=CCOCC1COC(c2cccc(Nc3ncc(Cl)c(NC4CCC4)n3)c2)O1 (centres unmarked) [Example 116]
log p [b] (pH 2.7): 2.59 | log p [c] (pH 7.8): 4.07

C=CCOCC1COC(c2cccc(Nc3ncc(Br)c(NC4CCC4)n3)c2)O1 (centres unmarked) [Example 117]
log p [b] (pH 2.7): 2.77 | log p [c] (pH 7.8): 4.24

Clc1cnc(Nc2cccc(C3OC4COCC4O3)c2)nc1NC1CCC1 (centres unmarked) [Example 118]
log p [b] (pH 2.7): 1.77 | log p [c] (pH 7.8): 3.04

Brc1cnc(Nc2cccc(C3OC4COCC4O3)c2)nc1NC1CCC1 (centres unmarked) [Example 119]
log p [b] (pH 2.7): 1.91 | log p [c] (pH 7.8): 3.23

CC(C)(C)C1CCOC(c2cccc(Nc3ncc(Br)c(NC4CC4)n3)c2)O1 (centres unmarked) [Example 120]
log p [b] (pH 2.7): 3.34 | log p [c] (pH 7.8): 4.7

CC(C)(C)C1CCOC(c2cccc(Nc3ncc(Cl)c(NC4CC4)n3)c2)O1 (centres unmarked) [Example 121]
log p [b] (pH 2.7): 3.16[b]

CC(C)(C)C1CCOC(c2cccc(Nc3ncc(C(F)(F)F)c(NC4CC4)n3)c2)O1 (centres unmarked) [Example 122]
log p [b] (pH 2.7): 4.44 | log p [c] (pH 7.8): 4.82

Clc1cnc(Nc2cccc(C3OCC4(CC4)CO3)c2)nc1NC1CC1 [Example 123]
log p [b] (pH 2.7): 2.09 | log p [c] (pH 7.8): 3.32

CC1CC(C(F)(F)F)OC(c2cccc(Nc3ncc(Cl)c(NC4CC4)n3)c2)O1 (centres unmarked) [Example 124]
log p [b] (pH 2.7): 2.84[b]

CCOC1COC(c2cccc(Nc3ncc(Cl)c(NC4CC4)n3)c2)OC1 (centres unmarked) [Example 125]
log p [b] (pH 2.7): 2.07 | log p [c] (pH 7.8): 3.27

Clc1cnc(Nc2cccc(C3OCCCCO3)c2)nc1NC1CC1 [Example 126]
log p [b] (pH 2.7): 2.14 | log p [c] (pH 7.8): 3.48

Clc1cnc(Nc2cccc(C3OCCCS3)c2)nc1NC1CC1 (centres unmarked) [Example 127]
log p [b] (pH 2.7): 2.1 | log p [c] (pH 7.8): 3.33

Fc1ccc(Nc2ncc(Cl)c(NC3CC3)n2)cc1C1OCCO1 [Example 128]
log p [b] (pH 2.7): 1.75 | log p [c] (pH 7.8): 2.88

CC1CC1Nc1nc(Nc2cccc(C3OCCO3)c2)ncc1C(F)(F)F (centres unmarked) [Example 129]
log p [b] (pH 2.7): 3.03 | log p [c] (pH 7.8): 3.58

COCC1COC(c2cccc(Nc3ncc(C(F)(F)F)c(NC4CC4C)n3)c2)O1 (centres unmarked) [Example 130]
log p (pH 2.7): 3.18 | log p (pH 7.8): 3.7

CC1CC1Nc1nc(Nc2cccc(C3OCCO3)c2)ncc1Br (centres unmarked) [Example 131]
log p (pH 7.8): 3.33[c]

COCC1COC(c2cccc(Nc3ncc(Br)c(NC4CC4C)n3)c2)O1 (centres unmarked) [Example 132]
log p (pH 2.7): 2.19 | log p (pH 7.8): 3.52

CC1CC1Nc1nc(Nc2cccc(C3OCCCO3)c2)ncc1Br (centres unmarked) [Example 133]
log p (pH 2.7): 2.18 | log p (pH 7.8): 3.53

C#CCNc1nc(Nc2cccc(C3OCCO3)c2)ncc1Cl [Example 134]
log p (pH 2.7): 1.58 | log p (pH 7.8): 2.37

Clc1cnc(Nc2ccc(C3OCCCO3)cc2)nc1NC1CC1 [Example 135]
log p (pH 2.7): 1.72 | log p (pH 7.8): 2.82

COc1ccc(Nc2ncc(C(F)(F)F)c(NC3CC3)n2)cc1C1OCCCO1 [Example 136]
log p (pH 2.7): 2.38 | log p (pH 7.8): 3.18

COc1ccc(Nc2ncc(Br)c(NC3CC3)n2)cc1C1OCCO1 [Example 138]
log p (pH 2.7): 1.5 | log p (pH 7.8): 2.7

COc1ccc(Nc2ncc(Br)c(NC3CCC3)n2)cc1C1OCCO1 [Example 139]
log p (pH 2.7): 1.79 | log p (pH 7.8): 3.29

Fc1ccc(Nc2ncc(Br)c(NC3CC3)n2)cc1C1OCCO1 [Example 141]
log p (pH 2.7): 1.89 | log p (pH 7.8): 2.98

Fc1ccc(Nc2ncc(Br)c(NC3CCC3)n2)cc1C1OCCO1 [Example 142]
log p (pH 2.7): 2.22 | log p (pH 7.8): 3.55

Fc1ccc(Nc2ncc(C(F)(F)F)c(NC3CC3)n2)cc1C1OCCO1 [Example 143]
log p (pH 2.7): 2.76 | log p (pH 7.8): 3.2

Fc1ccc(Nc2ncc(Cl)c(NC3CC3)n2)cc1C1OCCCO1 [Example 144]
log p (pH 2.7): 1.87 | log p (pH 7.8): 3.02

Fc1ccc(Nc2ncc(Br)c(NC3CC3)n2)cc1C1OCCCO1 [Example 145]
log p (pH 2.7): 2.01 | log p (pH 7.8): 3.16

Fc1ccc(Nc2ncc(Br)c(NC3CCC3)n2)cc1C1OCCCO1 [Example 146]
log p (pH 2.7): 2.3 | log p (pH 7.8): 3.75

Fc1ccc(Nc2ncc(C(F)(F)F)c(NC3CC3)n2)cc1C1OCCCO1 [Example 147]
log p (pH 2.7): 2.27 | log p (pH 7.8): 3.40

CC(C)Nc1nc(Nc2cccc(C3OCCO3)c2)ncc1Cl [Example 148]
log p (pH 2.7): 1.7 | log p (pH 7.8): 3.04
